This is an account of results in patent publication US20050009052A1 (priority 2003, published 2005).

Experiment [1] deals with pac10Δ/pac10Δ strain. The class given is cell-based, Saccharomyces cerevisiae. The following applies: pac10Δ/pac10Δ grown individually, YPD, 30° C.; staurosporine 1 μM, caffeine 8 mM, latrunculin B 2 μg/ml.
Experiment [2] relates to bro1Δ/bro1Δ strain. The following applies: bro1Δ/bro1Δ grown individually, YPD, 30° C.; staurosporine 1 μM, caffeine 8 mM.
In experiment [3] the test system is pde2Δ/pde2Δ strain. Description: Differential Tag Length Analysis (DTLA) of 11-strain mixed yeast culture with inhibitor. It counts as cell-based, Saccharomyces cerevisiae. As to conditions: 20 hours. The protocol:
(§1) Strains, media and inhibitors.
(§2) Tag amplification and capillary electrophoresis. Oligonucleotides Fluor-1 (6-Fam-[…]) and Pho-1 (Phosphate-[…]) were used for the amplification of tag DNAs. PCR reactions were performed in 50 μl reaction volume containing the 2 primers at a final concentration of 1 μM each and 2.5 units of Stoffel fragment AmpliTaq DNA polymerase (Applied Biosystems, Foster City, Calif.). After an initial 2 min denaturing step at 94° C., the reactions underwent 30 amplification cycles (94° C., 30 sec; 60° C., 30 sec; 72° C., 30 sec with a 6 sec increase in extension time per cycle) followed by a post-amplification extension step (72° C., 10 min). As a template for the PCR reactions, 100 ng of plasmid DNA, 700 ng of genomic DNA (extracted from yeast strains using MasterPure Yeast DNA purification kit; Epicentre, Madison, Wis.), or an equivalent to 0.5 μl of saturated culture of yeast protoplasts (prepared by using lyticase) (see, e.g., Chen et al., Biotechniques 19:744-746 (1995)) was used. The PCR products were incubated with λ-exonuclease for 1 h at 37° C. and then purified using MinElute PCR purification kit (QIAGEN Inc., Valencia, Calif.). After 1 h digestion with EcoRI, the PCR products were again purified with the same kit and adjusted to 70% formamide and 1 mM EDTA and analyzed by capillary electrophoresis on ABI Prism 3700 DNA analyzer (Applied Biosystems, Foster City, Calif.) using 3700 POP-5 polymer.
(§3) Data analysis. To access the raw fluorescence data collected by ABI Prism 3700 DNA analyzer, a Visual Basic program was used that extracted the electropherogram values and converted them into a text file format. Peak quantitation was then performed using Caesar Workstation 5.0 (SciBridge Software, Los Angeles, Calif.). In the majority of cases, the relative representation of each tag in the PCR product was calculated by dividing the area under the corresponding tag peak by the sum of all tag peak areas. For the measurement of different input amounts of tag 42, the average peak area of the other 10 tags was first calculated. The area value of tag 42 was then divided by this averaged value to give normalized tag 42 area.

In experiment [4] the test system is rlm1Δ/rlm1Δ strain. The description is as above. It counts as cell-based, Saccharomyces cerevisiae. The following applies: 20 hours. How it is done:
as §1, §2, §3

The test system of experiment [5] is pkc1Δ/PKC1 strain. Described as above. The class given is cell-based, Saccharomyces cerevisiae. The following applies: 20 hours, caffeine 8 mM. The protocol:
as §1, §2, §3

The subject of experiment [6] is bro1Δ/bro1Δ strain. The experiment is described as above. The class given is cell-based, Saccharomyces cerevisiae. The following applies: 20 hours; for increase of strain representation in the mixture: staurosporine 1 μM, latrunculin B 2 μg/ml. The protocol:
as §1, §2, §3

For experiment [7], the system named is gim4Δ/gim4Δ strain. Described as above. The class given is cell-based, Saccharomyces cerevisiae. The protocol:
as §1, §2, §3

Experiment [8] has as its system act1Δ/ACT1 strain. Described as above. The following applies: 20 hours. The class given is cell-based, Saccharomyces cerevisiae. How it is done: as §1, §2, §3
Experiment [9] deals with rlm1Δ/rlm1Δ strain. Description: Growth of individually cultured yeast strain with inhibitor (O.D.600). It counts as cell-based, Saccharomyces cerevisiae. The following applies: rlm1Δ/rlm1Δ grown individually, YPD, 30° C.; staurosporine 1 μM, caffeine 8 mM, tunicamycin 0.4 μg/ml.
Experiment [10] relates to pde2Δ/pde2Δ strain. The experiment is described as above. The following applies: pde2Δ/pde2Δ grown individually, YPD, 30° C.; staurosporine 1 μM, latrunculin B 2 μg/ml. The class given is cell-based, Saccharomyces cerevisiae.
In experiment [11] the test system is pdr5Δ/pdr5Δ strain. Description: Differential Tag Length Analysis (DTLA) of 11-strain mixed yeast culture with inhibitor. It counts as cell-based, Saccharomyces cerevisiae. As to conditions: pdr5Δ/pdr5Δ in mixed culture, 20 hours; latrunculin B 2 μg/ml. How it is done:
as §1, §2, §3

The test system of experiment [12] is gim4Δ/gim4Δ strain. The class given is cell-based, Saccharomyces cerevisiae. The following applies: gim4Δ/gim4Δ grown individually, YPD, 30° C.; staurosporine 1 μM, latrunculin B 2 μg/ml.
The subject of experiment [13] is ACT1/act1Δ strain. It counts as cell-based, Saccharomyces cerevisiae. As to conditions: ACT1/act1Δ grown individually, YPD, 30° C.; staurosporine 1 μM, latrunculin B 2 μg/ml.
Experiment [14] deals with pdr5Δ/pdr5Δ strain. The class given is cell-based, Saccharomyces cerevisiae. The following applies: pdr5Δ/pdr5Δ grown individually, YPD, 30° C.; staurosporine 1 μM, latrunculin B 2 μg/ml.
Experiment [15] concerns pac10Δ/pac10Δ strain. It counts as cell-based, Saccharomyces cerevisiae. As to conditions: pac10Δ/pac10Δ in mixed culture, 20 hours.
The subject of experiment [16] is alg7Δ/ALG7 strain. Nature of the experiment: Differential Tag Length Analysis (DTLA) of 11-strain mixed yeast culture with inhibitor. The class given is cell-based, Saccharomyces cerevisiae. The following applies: alg7Δ/ALG7 in mixed culture, 20 hours; tunicamycin 0.4 μg/ml. How it is done:
as §1, §2, §3

Experiment [17] deals with alg7Δ/ALG7 strain. The class given is cell-based, Saccharomyces cerevisiae. As to conditions: alg7Δ/ALG7 grown individually, YPD, 30° C.; staurosporine 1 μM, tunicamycin 0.4 μg/ml.

As to `Cn1c(=O)c2c(ncn2C)n(C)c1=O` [caffeine], the “sensitivity of growth to inhibitor” value in [1], in [2] and in experiment [9] was “sensitive” throughout. In addition, the “effect on growth of strain in mixed culture” value in experiment [3] (caffeine 8 mM) is listed as “decreased growth”; in experiment [4] (caffeine 8 mM), “decreased growth”; in [6] (caffeine 8 mM), “decreased growth”; in experiment [7] (caffeine 8 mM), “exhibited sensitivity in the mixture”; in experiment [8] (caffeine 8 mM) it was “decreased growth”. Further, in experiment [5], the “increase of strain representation in the mixture” value (“increase of strain representation” below) came out at 97%.

Consider `C/C1=C/C(=O)O[C@@H]2C[C@@H](CC[C@H](C)/C=C\CC1)O[C@@](O)([C@@H]1CSC(=O)N1)C2` [latrunculin B], for which the “sensitivity of growth to inhibitor” value in experiment [1], in experiment [10], in experiment [12], in experiment [13] and in experiment [14] was “inhibited the growth” in each case. Also, the “strain representation compared with the non-treated culture (reduced to)” value in experiment [3] (pde2Δ/pde2Δ in mixed culture, latrunculin B 2 μg/ml) is “less than 50%”; in experiment [11], “less than 50%”; in experiment [7] (gim4Δ/gim4Δ in mixed culture, 20 hours, latrunculin B 2 μg/ml), “less than 50%”; in experiment [8] (act1Δ/ACT1 in mixed culture, latrunculin B 2 μg/ml), “less than 50%”; in experiment [15] (latrunculin B 2 μg/ml), “less than 50%”. In [6], the “increase of strain representation” value was 123%.

Regarding `CN[C@@H]1C[C@H]2O[C@@](C)([C@@H]1OC)n1c3ccccc3c3c4c(c5c6ccccc6n2c5c31)C(=O)NC4` [staurosporine], the “increase of strain representation” value in [3] (staurosporine 1 μM) is 200%; in experiment [6] it was 340%.

Consider tunicamycin, for which, in [4] (rlm1Δ/rlm1Δ in mixed culture, staurosporine 1 μM, tunicamycin 0.4 μg/ml), the “decrease/reduction of strain relative to the non-treated culture” value was 59%. For the same compound, the “reduction of strain relative to the non-treated culture” value in experiment [16] turned out to be 83%. For the same compound, the “sensitivity of growth to inhibitor” value in experiment [17] and in [9] was “slowed the growth” throughout. In addition, the “increase of strain representation” value in experiment [15] (tunicamycin 0.4 μg/ml) came out at 82%.
